Where two headings read alike, the source gives them in different places.
Key:
[1] = system: contractile response of isolated guinea pig ileum to angiotensin I; assay: Inhibition of contractile response of isolated guinea pig ileum to angiotensin I; assay type: cell-based; details: Cavia porcellus, angiotensin I 0.1 μg/ml; compound added 5 min before; 30° C.; read-out: Angiotensin I IC50 (50% inhibition of angiotensin I activity inducing the contraction of guinea pig ileum)
From the text: As the method of measurement of angiotensin I-converting enzyme activity, bioassay for the contractile response of isolated smooth muscle or the pressor response of normal animals and biochemical assay for the enzyme isolated from lung or other organs of animals are known. The former is found more advantageous than the latter for the examination of the convertion of angiotensin I to angiotensin II in vivo.
In the present study, therefore, we adopted the bioassay for contractile response of isolated guinea pig ileum to angiotensin I.
(§1) Measurement of inhibitory activity of angiotensin I-converting enzyme
(§2) Isolated guinea pig ileum was suspended in the organ bath containing 20 ml of Tyrode's solution of 30° C. gassed with 95% O2 +5% CO2. The contraction induced by the addition of angiotensin I (0.1 μg/ml) at intervals of 10 minutes was recorded on a recticorder (Nihon Koden) for 90 seconds using FD pick up (ST-1T-H, Nihon Koden).
(§3) The test compounds were added to the bath 5 minutes before the addition of angiotensin I.
The inhibitory activity of angiotensin I-converting enzyme was calculated by the following formula. [formula] A: contractile intensity of angiotensin I before addition of the compound B: contractile intensity of angiotensin I after addition of the compound

[2] = system: contractile response to bradykinin (isolated guinea pig ileum); assay: Augmentation of contractile response of isolated guinea pig ileum to bradykinin; assay type: cell-based; details: Cavia porcellus, bradykinin 0.005 μg/ml; compound added 5 min before; 30° C.; read-out: Bradykinin AC50 (50% augmentation of bradykinin activity inducing the contraction of guinea pig ileum)
Experimental: as §2, §3
From the fact that kininase II, which destroys bradykinin having contractive action on isolated guinea pig ileum, is thought to be identical with angiotensin I-converting enzyme, augmentation of the contractile response to bradykinin by test compounds was examined by using bradykinin (0.005 μg/ml) in place of angiotensin I according to the above mentioned method.

[3] = Acute toxicity test; details: rat, in vivo
Experimental: The male ddy-SLC strain […] (4 weeks of age, weighing 19-21 g) were placed in a breeding room of constant temperature and humidity (23°±1° C., 55±5%) and fed freely pellet diet (CE-2, Clea Japan Inc.) and water ad. libitum for a week. The rats showing the normal growth were selected for the experiment.
Test compounds are suspended in 0.5% tragacanth solution (p.o.) or dissolved in distilled water (i.v., i.p.), and administered in a dose of 0.5 ml/20 g body weight.

[4] = target: T1, angiotensin I-converting enzyme (Oryctolagus cuniculus, UniProt P12822); assay: Inhibition of angiotensin I-converting enzyme by spectrophotometry (HHL substrate); assay type: biochemical; details: enzyme from rabbit lung; 5 mM HHL; pH 8.3; 37° C., 30 min
T1 construct: angiotensin I-converting enzyme extracted from rabbit lung; from tissue; host or cells: rabbit lung
T1 sequence (P12822 34-1310): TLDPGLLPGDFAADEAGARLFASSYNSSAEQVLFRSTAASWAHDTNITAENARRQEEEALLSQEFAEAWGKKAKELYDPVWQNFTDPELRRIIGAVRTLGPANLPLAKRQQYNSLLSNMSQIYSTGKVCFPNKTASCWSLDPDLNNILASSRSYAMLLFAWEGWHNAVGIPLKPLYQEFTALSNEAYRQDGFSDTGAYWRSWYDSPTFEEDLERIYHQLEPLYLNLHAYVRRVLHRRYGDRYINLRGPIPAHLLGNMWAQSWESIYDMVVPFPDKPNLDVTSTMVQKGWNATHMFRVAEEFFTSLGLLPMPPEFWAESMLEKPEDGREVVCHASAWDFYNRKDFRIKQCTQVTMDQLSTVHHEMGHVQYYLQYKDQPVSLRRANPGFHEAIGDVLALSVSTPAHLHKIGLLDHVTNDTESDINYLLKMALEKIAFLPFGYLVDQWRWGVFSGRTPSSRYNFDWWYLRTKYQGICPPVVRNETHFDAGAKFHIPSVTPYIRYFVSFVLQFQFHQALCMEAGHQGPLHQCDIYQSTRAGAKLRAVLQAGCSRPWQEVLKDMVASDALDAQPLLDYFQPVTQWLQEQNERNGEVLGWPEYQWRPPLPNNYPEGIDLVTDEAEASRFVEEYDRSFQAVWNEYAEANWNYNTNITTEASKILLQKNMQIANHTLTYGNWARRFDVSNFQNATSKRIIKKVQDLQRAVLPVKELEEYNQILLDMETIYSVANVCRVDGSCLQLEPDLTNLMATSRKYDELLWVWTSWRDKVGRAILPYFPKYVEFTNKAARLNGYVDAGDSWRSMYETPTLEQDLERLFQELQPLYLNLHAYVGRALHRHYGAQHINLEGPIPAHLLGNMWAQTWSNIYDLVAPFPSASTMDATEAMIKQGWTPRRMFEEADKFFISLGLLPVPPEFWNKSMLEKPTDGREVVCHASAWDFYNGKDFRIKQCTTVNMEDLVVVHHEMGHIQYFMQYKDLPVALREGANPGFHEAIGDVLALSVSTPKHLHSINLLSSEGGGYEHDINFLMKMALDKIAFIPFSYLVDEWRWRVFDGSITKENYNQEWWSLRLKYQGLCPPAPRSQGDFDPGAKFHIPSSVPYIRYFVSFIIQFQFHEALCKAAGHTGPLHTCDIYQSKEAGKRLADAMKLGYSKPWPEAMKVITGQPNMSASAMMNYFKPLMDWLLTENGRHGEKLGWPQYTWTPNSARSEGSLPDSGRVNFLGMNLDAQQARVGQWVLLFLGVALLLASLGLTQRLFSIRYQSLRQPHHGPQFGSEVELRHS
Experimental: That is, the absorbance of hippuric acid was measured, which is liberated by incubating hippuryl-L-histidyl-L-leucine (HHL) as substrate in the presence of angiotensin I-converting enzyme extracted from rabbit lung.
as §1
The reaction mixture is as follows:
100 mM phosphate buffer (pH 8.3)
10^-3 ~10^-9 M enzyme inhibitor
0.25 ml of the above mixture was incubated at 37° C. for 30 minutes and the reaction was stopped by adding 0.25 ml of 1 N hydrochloric acid. To this solution, 1.5 ml of ethyl acetate was added in order to extract hippuric acid. 1.0 ml of ethyl acetate layer was collected and evaporated to dryness, and the residue obtained was dissolved in 1.0 ml of water.
The inhibitory activity of angiotensin I-converting enzyme was calculated by the following formula: [formula]

[5] = system: pressor response to angiotensin I; assay: Inhibition of pressor response to angiotensin I in rats after oral administration; assay type: in vivo, rat (male Wistar); details: angiotensin I 300 ng/kg i.v.
Experimental: Male Wistar strain rats weighing about 200-300 g were used.
Under ether anesthesia, polyethylene cannulae are inserted into carotid arthery and jugular vein. The cannula to carotid artery is connected to an electric transducer, while the cannula to jugular vein is connected to an apparatus for continuous infusion. After the complete recovery from anesthesia, angiotensin I is infused intravenously in a dose of 300 ng/kg by the apparatus for continuous infusion, and the pressor response is recorded by polygraph (Nihon Koden, RM-150).
The compounds of this invention suspended in 0.5% tragacanth solution are administered orally in a dose of 0.3 ml per 100 g of body weight, and the pressor response to angiotensin I infused intravenously is measured with time.
The inhibitory activity of the compounds against angiotensin I-converting enzyme is expressed as the percent inhibition of pressor response to angiotensin I.

| SMILES | IC50 [1] | AC50 [2] | LD50 ([3]; ip, dissolved in distilled water, pH 7, read-out: LD i.p.) | IC50 [4] | Inhibition (%) of pressor response to angiotensin I, 5 min ([5]; 5 min, dose: 3, 45, 49 1.8 mg/kg, 4, 46 1.3, 50 1.4, 76 2.0, 77 1.5) | Inhibition (%) of pressor response to angiotensin I, 15 min ([5]; 15 min, dose: 3, 45, 49 1.8 mg/kg, 4, 46 1.3, 50 1.4, 76 2.0, 77 1.5) | Inhibition (%) of pressor response to angiotensin I, 25 min ([5]; 25 min, dose: 3, 45, 49 1.8 mg/kg, 4, 46 1.3, 50 1.4, 76 2.0, 77 1.5) | Inhibition (%) of pressor response to angiotensin I, 35 min ([5]; 35 min, dose: 3, 45, 49 1.8 mg/kg, 4, 46 1.3, 50 1.4, 76 2.0, 77 1.5) | Inhibition (%) of pressor response to angiotensin I, 45 min ([5]; 45 min, dose: 3, 45, 49 1.8 mg/kg, 4, 46 1.3, 50 1.4, 76 2.0, 77 1.5) | Inhibition (%) of pressor response to angiotensin I, 55 min ([5]; 55 min, dose: 3, 45, 49 1.8 mg/kg, 4, 46 1.3, 50 1.4, 76 2.0, 77 1.5) | Inhibition (%) of pressor response to angiotensin I, 65 min ([5]; 65 min, dose: 3, 45, 49 1.8 mg/kg, 4, 46 1.3, 50 1.4, 76 2.0, 77 1.5) | Inhibition (%) of pressor response to angiotensin I, 75 min ([5]; 75 min, dose: 3, 45, 49 1.8 mg/kg, 4, 46 1.3, 50 1.4, 76 2.0, 77 1.5) | Inhibition (%) of pressor response to angiotensin I, 85 min ([5]; 85 min, dose: 3, 45, 49 1.8 mg/kg, 4, 46 1.3, 50 1.4, 76 2.0, 77 1.5) | Inhibition (%) of pressor response to angiotensin I, 95 min ([5]; 95 min, dose: 45, 49 1.8 mg/kg, 4, 46 1.3, 50 1.4, 76 2.0, 77 1.5) | Inhibition (%) of pressor response to angiotensin I, 105 min ([5]; 105 min, dose: 45, 49 1.8 mg/kg, 46 1.3, 50 1.4, 76 2.0, 77 1.5) | Inhibition (%) of pressor response to angiotensin I, 115 min ([5]; 115 min, dose: 45, 49 1.8 mg/kg, 46 1.3, 50 1.4, 76 2.0, 77 1.5) | LD50 ([3]; po, suspended in 0.5% tragacanth solution, read-out: LD50 p.o.) |
| --- | --- | --- | --- | --- | --- | --- | --- | --- | --- | --- | --- | --- | --- | --- | --- | --- | --- |
| C[C@H](CS)C(=O)N1C(c2ccccc2)SC[C@H]1C(=O)O (stereo partly shown) [Compound 18] | 190 nM | 3.1 nM | > 1000 mg/kg | 60 nM |  |  |  |  |  |  |  |  |  |  |  |  |  |
| O=C(O)[C@@H]1CSC(c2ccccc2O)N1C(=O)CCS (stereo partly drawn) [Compound 46, (4R)-2-(2-Hydroxyphenyl)-3-(3-mercaptopropanoyl)-4-thiazolidinecarboxylic acid] | 19 nM | 0.3 nM |  |  | 53.3% | 62.9% | 64.7% | 63.7% | 54.0% | 49.3% | 47.7% | 38.8% | 34.0% | 30.0% | 30.0% | 31.0% | > 10000 mg/kg |

Source: US4356183A, “Antihypertensive 4-thiazolidinecarboxylic acids (pyridyl derivatives)” (Santen Pharmaceutical Co., Ltd., priority 1978, dated 1982)
